Experiment [1] addresses T1, NURR-1/RXRα (Homo sapiens, UniProt P19793).
T1 construct: expressed in transfected cells; host or cells: Cos-7 cells
In words: Transactivation test, NURR-1-Gal4/RXRα, luciferase reporter in Cos-7 cells. In kind it is cell-based. The settings on record: for Emax: COS-7, induction level relative to reference XCT0135908 at 2×10^−5 M (=100%), read-out: hNurr1_RXRaFL Emax (%); for EC50: Cos-7 cells, NURR-1-Gal4/RXRα, luciferase reporter, read-out: hNurr1_RXRaFL EC50. (In general: A reporter such as luciferase makes a cellular process visible.)

For experiment [2], the target named is T2, NURR-1/RXRγ (Homo sapiens, UniProt P48443).
T2 construct: expressed in transfected cells; host or cells: Cos-7 cells
T2 sequence (P48443 whole entry): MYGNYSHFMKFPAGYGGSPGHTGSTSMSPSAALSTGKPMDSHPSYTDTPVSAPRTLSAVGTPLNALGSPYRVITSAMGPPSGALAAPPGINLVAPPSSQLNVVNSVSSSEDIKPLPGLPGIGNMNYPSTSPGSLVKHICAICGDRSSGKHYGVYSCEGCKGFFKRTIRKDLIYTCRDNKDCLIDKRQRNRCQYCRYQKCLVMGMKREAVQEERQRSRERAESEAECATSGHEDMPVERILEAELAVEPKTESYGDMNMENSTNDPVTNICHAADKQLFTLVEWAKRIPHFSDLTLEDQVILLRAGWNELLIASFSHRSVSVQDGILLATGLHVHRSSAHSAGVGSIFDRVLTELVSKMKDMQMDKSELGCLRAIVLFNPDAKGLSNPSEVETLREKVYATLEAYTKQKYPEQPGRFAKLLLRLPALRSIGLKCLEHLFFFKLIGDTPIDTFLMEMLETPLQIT
T2 sequence (P43354 whole entry partner): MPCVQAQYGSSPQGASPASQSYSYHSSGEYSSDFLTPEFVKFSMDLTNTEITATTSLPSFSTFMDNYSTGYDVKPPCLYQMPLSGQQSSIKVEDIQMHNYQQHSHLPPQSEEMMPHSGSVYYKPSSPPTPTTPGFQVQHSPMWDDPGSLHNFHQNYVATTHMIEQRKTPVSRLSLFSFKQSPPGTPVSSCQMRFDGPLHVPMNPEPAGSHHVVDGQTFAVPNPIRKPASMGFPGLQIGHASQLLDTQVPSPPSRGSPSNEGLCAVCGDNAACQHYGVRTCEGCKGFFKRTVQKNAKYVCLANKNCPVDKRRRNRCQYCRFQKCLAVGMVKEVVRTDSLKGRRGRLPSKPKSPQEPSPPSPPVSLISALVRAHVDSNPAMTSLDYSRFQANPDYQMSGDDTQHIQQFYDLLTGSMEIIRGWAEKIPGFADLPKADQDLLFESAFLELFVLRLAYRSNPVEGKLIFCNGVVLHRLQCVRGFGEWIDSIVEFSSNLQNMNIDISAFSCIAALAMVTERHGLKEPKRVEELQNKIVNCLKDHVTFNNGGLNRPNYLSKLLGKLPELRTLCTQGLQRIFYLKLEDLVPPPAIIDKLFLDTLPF
T2 sequence (P04386 1-147 partner limits assumed): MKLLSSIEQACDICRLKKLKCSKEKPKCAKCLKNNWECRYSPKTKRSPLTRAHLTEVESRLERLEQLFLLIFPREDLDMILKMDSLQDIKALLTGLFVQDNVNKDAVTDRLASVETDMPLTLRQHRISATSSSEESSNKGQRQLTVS
As to the kind of experiment: Transactivation test, NURR-1-Gal4/RXRγ, luciferase reporter in Cos-7 cells. In kind it is cell-based. The settings on record: for Emax: COS-7, induction level relative to reference XCT0135908 at 2×10^−5 M (=100%), read-out: hNurr1_RXRgFL Emax (%); for EC50: Cos-7 cells, NURR-1-Gal4/RXRγ, luciferase reporter, read-out: hNurr1_RXRgFL EC50.

T1 sequence (P19793 whole entry): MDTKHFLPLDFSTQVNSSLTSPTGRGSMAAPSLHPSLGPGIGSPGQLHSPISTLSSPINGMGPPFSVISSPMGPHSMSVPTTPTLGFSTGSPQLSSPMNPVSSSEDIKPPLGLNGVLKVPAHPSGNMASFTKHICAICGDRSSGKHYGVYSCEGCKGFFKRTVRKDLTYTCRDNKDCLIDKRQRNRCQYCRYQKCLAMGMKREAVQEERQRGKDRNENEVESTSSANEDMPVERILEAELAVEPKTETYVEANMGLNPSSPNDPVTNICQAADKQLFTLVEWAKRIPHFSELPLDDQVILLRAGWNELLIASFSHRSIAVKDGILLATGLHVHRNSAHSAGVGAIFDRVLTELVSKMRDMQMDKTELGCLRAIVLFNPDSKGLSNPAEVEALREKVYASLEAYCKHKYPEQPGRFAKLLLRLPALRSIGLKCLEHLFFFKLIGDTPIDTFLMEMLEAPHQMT
T1 sequence (P43354 whole entry partner): as the sequence (P43354 whole entry partner) above
T1 sequence (P04386 1-147 partner limits assumed): as the sequence (P04386 1-147 partner limits assumed) above

As usually defined, the Emax is the maximal effect, on the per cent scale that the assay sets. In general, EC50 refers to the concentration needed to bring the measured effect to its halfway point. As to `CC(C)(C)c1cccc(-c2cccc(N3CC(C(=O)O)C3)c2)c1` [Example 84, 1-[3-(3-tert-butylphenyl)phenyl]azetidine-3-carboxylic acid], in experiment [1], the Emax came to 112% and the EC50 was 44 nM. Besides, in experiment [2], the Emax came to 120% and the EC50 is 82 nM.

Take `CC1(C(=O)O)CN(c2cccc(-c3ccc4c(c3)C(C)(C)CCC4(C)C)c2)C1` [Example 87]: in experiment [1], the Emax turned out to be 69% and the EC50 is more than 5000 nM. Also, in experiment [2], the Emax was determined as 38% and the EC50 was more than 5000 nM.

Regarding `CCCOc1ccc(C(F)(F)F)cc1-c1cccc(N2CC(C(=O)O)C2)c1` [Example 88, 1-[3-[2-propoxy-5-(trifluromethyl)phenyl]phenyl]azetidine-3-carboxylic acid], in experiment [1], the Emax worked out at 69% and the EC50 is 60 nM. Moreover, in experiment [2], the Emax came to 80% and the EC50 stood at 73 nM.

Regarding `CCCCOc1ccc(C(F)(F)F)cc1-c1cccc(N2CC(C(=O)O)C2)c1` [Example 89], in experiment [1], the Emax was 61% and the EC50 was determined as 23 nM. In experiment [2], the Emax turned out to be 64% and the EC50 amounted to 21 nM.

Take `O=C(O)C1CN(c2cccc(-c3cc(C(F)(F)F)ccc3OCc3ccccc3)c2)C1` [Example 90, 1-[3-[2-benzyloxy-5-(trifluoromethyl)phenyl]phenyl]azetidine-3-carboxylic acid]: in experiment [1], the Emax came out at 67% and the EC50 is 6 nM. Besides, in experiment [2], the Emax came to 57% and the EC50 was 7 nM.

Regarding `O=C(O)C1CN(c2cccc(-c3cc(C(F)(F)F)ccc3OCC3CCOC3)c2)C1` (centres unmarked) [Example 91], the Emax was 43% in experiment [1] and 77% in experiment [2]. Also, the EC50 in experiment [1] came out at 278 nM; in experiment [2], 282 nM.

Regarding `COc1cccc(COc2ccc(C(F)(F)F)cc2-c2cccc(N3CC(C(=O)O)C3)c2)c1` [Example 92, 1-[3-[2-[(3-methoxyphenyl)methoxy]-5-(trifluoromethyl)phenyl]phenyl]azetidine-3-carboxylic acid], the Emax is 59% in experiment [1] and 36% in experiment [2]. In addition, the EC50 in experiment [1] came out at 29 nM; in experiment [2], 93 nM.

With `O=C(O)C1CN(c2cccc(-c3cc(C(F)(F)F)ccc3OCCc3ccccc3)c2)C1` [Example 93, 1-[3-[2-phenyethyloxy-5-(trifluromethyl)phenyl]phenyl]azetidine-3-carboxylic acid], the Emax in experiment [1] stood at 58%; in experiment [2], 42%. The EC50 amounted to 33 nM in experiment [1] and 31 nM in experiment [2].

With `O=C(O)C1CN(c2cccc(-c3cc(C(F)(F)F)ccc3OCc3cccs3)c2)C1` [Example 96], the Emax in experiment [1] is 117%; in experiment [2], 96%. The values for the EC50 in experiment [1] and in experiment [2] were 7 nM and 10 nM, respectively.

On to `O=C(O)C1CN(c2cccc(-c3cc(C(F)(F)F)ccc3OCc3ccccc3Cl)c2)C1` [Example 97, 1-[3-[2-[(2-chlorophenyl)methyoxy]-5-(trifluoromethyl)phenyl]phenyl]azetidine-3-carboxylic acid], for which the values for the Emax in experiment [1] and in experiment [2] were 49% and 38%, respectively. For the same compound, the EC50 stood at 12 nM in experiment [1] and 13 nM in experiment [2].

Consider `O=C(O)C1CN(c2cccc(-c3cc(C(F)(F)F)ccc3OCc3ccc(F)cc3)c2)C1` [Example 99, 1-[3-[2-[(4-fluorophenyl),ethoxy]-5-(trifluroomethyl)phenyl]phenyl]azetidine-3-carboxylic acid], for which, in experiment [1], the Emax was 56% and the EC50 was found to be 17 nM. Also, in experiment [2], the Emax was 51% and the EC50 is 19 nM.

For the compound `CC(C)C(Oc1ccc(C(F)(F)F)cc1-c1cccc(N2CC(C(=O)O)C2)c1)C(C)C` [Example 101, 1-[3-[2-(1-isopropyl-2-methlypropoxy)-5-(trifluoromethyl)phenyl]phenyl]azetidine-3-carboxylic acid], the values for the Emax in experiment [1] and in experiment [2] were 55% and 41%, respectively. For the same compound, the EC50 was determined as 118 nM in experiment [1] and 60 nM in experiment [2].

`COCCOc1ccc(C(F)(F)F)cc1-c1cccc(N2CC(C(=O)O)C2)c1` [Example 102, 1-[3-[2-(2-methoxyethoxy)-5-(trifluoromethyl)phenyl]phenyl]azetidine-3-carboxylic acid]: in experiment [1], the Emax was 97% and the EC50 amounted to 159 nM. In experiment [2], the Emax came to 94% and the EC50 stood at 125 nM.

Turning to `CCC(CC)COc1ccc(C(F)(F)F)cc1-c1cccc(N2CC(C(=O)O)C2)c1` [Example 103, 1-[3-[2-(2-ethylbutoxy)-5-(trifluoromethyl)phenyl]phenyl]azetidine-3-carboxylic acid], in experiment [1], the Emax came out at 62% and the 50% effective concentration (EC50) was determined as 16 nM. Besides, in experiment [2], the maximum response (Emax) is 58% and the EC50 came out at 17 nM.

On to `CCC(C)Oc1ccc(C(F)(F)F)cc1-c1cccc(N2CC(C(=O)O)C2)c1` (centres unmarked) [Example 105, 1-[3-[2-sec-butoxy-5-(trifluoromethyl)phenyl]phenyl]azetidine-3-carboxylic acid], for which the Emax in experiment [1] amounted to 56%; in experiment [2] it was 55%. Besides, the EC50 in experiment [1] stood at 10 nM; in experiment [2], 19 nM.

For `Cc1cc(C)cc(COc2ccc(C(F)(F)F)cc2-c2cccc(N3CC(C(=O)O)C3)c2)c1` [Example 106, 1-[3-[2-[(3,5-dimethylphenyl)methoxy]-5-(trifluoromethyl)phenyl]phenyl]azetidine-3-carboxylic acid], in experiment [1], the Emax came out at 40% and the EC50 was 13 nM. Besides, in experiment [2], the Emax was determined as 36% and the EC50 was determined as 13 nM.

For `O=C(O)C1CN(c2cccc(-c3cc(C(F)(F)F)ccc3OCc3cccc(Cl)c3)c2)C1` [Example 107, 1-[3-[2-[(3-chlorophenyl)methyoxy]-5-(trifluoromethyl)-phenyl]phenyl]azetidine-3-carboxylic acid], in experiment [1], the Emax was determined as 48% and the EC50 is 19 nM. In experiment [2], the Emax is 48% and the EC50 worked out at 30 nM.

In the case of `Cn1ccc(COc2ccc(C(F)(F)F)cc2-c2cccc(N3CC(C(=O)O)C3)c2)n1` [Example 108, 1-[3-[2-[(1-methylpyrazol-3-yl)methoxy]-5-(trifluoromethyl)phenyl]phenyl]azetidine-3-carboxylic acid], the results for the Emax in experiment [1] and in experiment [2] were 53% and 54%, respectively. The values for the EC50 in experiment [1] and in experiment [2] were 82 nM and 112 nM, respectively.

In the case of `O=C(O)C1CN(c2cccc(-c3cc(C(F)(F)F)ccc3OCc3ccsc3)c2)C1` [Example 111, 1-[3-[2-(3-thienylmethoxy)-5-(trifluoromethyl)phenyl]phenyl]azetidine-3-carboxylic acid], in experiment [1], the Emax is 94% and the EC50 came to 8 nM. In experiment [2], the Emax is 94% and the EC50 is 15 nM.

In the case of `CC1(C)CN(c2cccc(N3CC(C(=O)O)C3)c2)c2ccc(C(F)(F)F)cc2O1` [Example 112, 1-[3-[2,2-dimethyl-7-(trifluoromethyl)-3H-1,4,benzoxazin-4-yl]phenyl]azetidine-3-carboxylic acid], the Emax worked out at 125% in experiment [1] and 136% in experiment [2]. In addition, the figures for the EC50 in experiment [1] and in experiment [2] were 3 nM and 9 nM, respectively.

`O=C(O)C1CN(c2cccc(N3C(=O)C4(CCC4)Oc4cc(C(F)(F)F)ccc43)c2)C1` [Example 121, 1-[3-[3-oxo-7-(trifluromethyl)spiro[3H1,4-benzoxazine-2,1′-cyclobutane]-4yl]phenyl]azetidine-3-carboxylic acid]: in experiment [1], the Emax was determined as 122% and the EC50 came to 12 nM. For the same compound, in experiment [2], the Emax worked out at 133% and the EC50 was found to be 13 nM.

Consider `O=C(O)C1CN(c2cccc(-n3cc(CC4CCCC4)c4cc(C(F)(F)F)ccc43)c2)C1` [Example 127, 1-[3-[3-(cyclopentylmethyl)-5-(trifluoromethyl)indol-1-yl]phenyl]azetidine-3-carboxylic acid], for which, in experiment [1], the Emax worked out at 117% and the EC50 was 4 nM. In experiment [2], the Emax is 113% and the EC50 turned out to be 3 nM.

Consider `O=C(O)C1CN(c2cccc(-n3cc(CC4CCOCC4)c4cc(C(F)(F)F)ccc43)c2)C1` [Example 129, 1-[3-[3-(tetrahydropyran-4-ylmethyl)-5-(trifluoromethyl)indol-1-yl]phenyl]azetidine-3-carboxylic acid], for which, in experiment [1], the Emax came to 90% and the EC50 was 7 nM. Moreover, in experiment [2], the Emax was 88% and the EC50 was 10 nM.

Consider `CNS(=O)(=O)c1cn(-c2cccc(N3CC(C(=O)O)C3)c2)c2ccc(C(F)(F)F)cc12` [Example 137], for which, in experiment [1], the Emax was 82% and the concentration giving a half-maximal response (EC50) came out at 995 nM. Moreover, in experiment [2], the Emax was 85% and the EC50 amounted to 2090 nM.

For `O=C(O)C1CN(c2cccc(N3CC4(CCCC4)c4cc(C(F)(F)F)ccc43)c2)C1` [Example 139, 1-[3-[5′-(trifluoromethyl)spiro[cyclopentane-1,3′-indoline]-1′-yl]phenyl]azetidine-3-carboxylic acid], in experiment [1], the Emax was 115% and the EC50 is 7 nM. Moreover, in experiment [2], the Emax was 122% and the EC50 was 10 nM.

Regarding `O=C(O)C1CN(c2cccc(N3CC4(CCOC4)c4cc(C(F)(F)F)ccc43)c2)C1` (centres unmarked) [Example 140, 1-[3-[5-(trifluoromethyl)spiro[indoline-3,3′-tetrahydrofuran]-1-yl]phenyl]azetidine-3-carboxylic acid], the Emax in experiment [1] worked out at 108%; in experiment [2], 97%. Moreover, the figures for the EC50 in experiment [1] and in experiment [2] were 40 nM and 30 nM, respectively.
